Measurements: US8722849B2, “Polypeptides” (Novo Nordisk A/S, priority 2011, dated 2014)
In brackets after ≈: the same amount, converted by molar mass. Where two headings read alike, the source gives them in different places. Starred links: 1 amine or outer side, 2 acyl side, 3 side chain; linkers in the order of their positions; H or OH if unused. Positions of bridges follow the written chain, without caps; N, C: chain ends. Residues, ends and D or L forms follow the SMILES beside them. Groups on a side chain read outwards from the residue. *: point of attachment. C20 diacid = O=C(O)CCCCCCCCCCCCCCCCCCC(=O)*; C18 diacid = O=C(O)CCCCCCCCCCCCCCCCC(=O)*; γGlu = O=C(O)[C@H](CCC(=O)[*:2])N[*:1]; AEEA = NCCOCCOCC(=O)O

Columns and labels:
[1] = molecular target: T1, rat amylin 3(a) receptor (rat calcitonin(a) receptor + rat RAMP3) (Rattus norvegicus, UniProt P32214+Q9JJ73); experiment: Assay (II)b functional cAMP FlashPlate assay, rat amylin receptor; assay type: cell-based; details: Table 11
T1 construct: expressed in transfected cells; host or cells: BHK tk'ts 13
T1 sequence (P32214 25-479 isoform P32214-2 limits assumed): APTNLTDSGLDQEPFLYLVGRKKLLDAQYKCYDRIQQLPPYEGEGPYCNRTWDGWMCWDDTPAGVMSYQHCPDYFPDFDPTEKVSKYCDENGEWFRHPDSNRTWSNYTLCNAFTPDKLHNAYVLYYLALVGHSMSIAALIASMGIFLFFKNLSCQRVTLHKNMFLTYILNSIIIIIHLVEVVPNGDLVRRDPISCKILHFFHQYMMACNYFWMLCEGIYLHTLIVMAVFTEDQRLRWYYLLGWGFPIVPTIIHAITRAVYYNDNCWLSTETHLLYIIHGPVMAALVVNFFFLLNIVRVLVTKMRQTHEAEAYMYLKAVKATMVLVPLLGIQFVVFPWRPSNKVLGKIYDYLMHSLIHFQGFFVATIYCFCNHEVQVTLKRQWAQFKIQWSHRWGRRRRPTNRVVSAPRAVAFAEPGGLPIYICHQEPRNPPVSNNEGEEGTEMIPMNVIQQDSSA
T1 sequence (Q9JJ73 23-147 partner): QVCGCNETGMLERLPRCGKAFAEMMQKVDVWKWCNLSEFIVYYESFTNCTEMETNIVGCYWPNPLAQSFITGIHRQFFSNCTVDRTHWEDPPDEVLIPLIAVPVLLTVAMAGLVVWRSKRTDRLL
How it was run: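 BHK tk'ts 13 cells transiently transfected with rat calcitonin(a) receptor, alone or with rat RAMP3 (amylin 3(a)), were stimulated 24 hours later with sample for 30 min in buffer containing IBMX. cAMP measured by competitive radioactive FlashPlate assay, scintillation read after 3 h detection incubation.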

[2] = Assay (III) ThT fibrillation assay for physical stability; assay type: physicochemical
How it was run: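 Freshly prepared formulations, pH-adjusted, with 1 μM ThT; four or eight replicates incubated at 37 °C under 960 rpm orbital shaking. Fluorescence (ex 444/em 485 nm) read every 20 min; […]. Peptide concentration measured by RP-HPLC before and after the run.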

[3] = Assay (IV) determination of solubility; assay type: physicochemical
How it was run: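 Solubility is measured across pH 3.0–8.0 by mixing a ~500 nmol/ml aqueous polypeptide stock 1:1 with 100 mM glycylglycine or bistrispropane buffers. Samples stand 18 hours at room temperature, then are centrifuged and the soluble concentration is determined by HPLC.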

[4] = bistrispropane buffer, pH 6, pH 6.0, read-out: Solubility pH 6.0
[5] = bistrispropane buffer, pH 6.5, pH 6.5, read-out: Solubility pH 6.5
[6] = bistrispropane buffer, pH 7, pH 7.0, 18 hours at room temperature, Table 3, read-out: Solubility pH 7.0
[7] = bistrispropane buffer, pH 7, pH 7.0, Table 8, read-out: Solubility pH 7.0
[8] = bistrispropane buffer, pH 7, pH 7.0, read-out: Solubility pH 7.0
[9] = bistrispropane buffer, pH 7.5, pH 7.5, read-out: Solubility pH 7.5
[10] = bistrispropane buffer, pH 8, pH 8.0, read-out: Solubility pH 8.0
[11] = glycylglycine buffer, pH 3, pH 3.0, read-out: Solubility pH 3.0
[12] = glycylglycine buffer, pH 4, pH 4.0, 18 hours at room temperature, Table 2, read-out: Solubility pH 4.0
[13] = glycylglycine buffer, pH 4, pH 4.0, read-out: Solubility pH 4.0
[14] = glycylglycine buffer, pH 5, pH 5.0, read-out: Solubility pH 5.0

EC50 [1]	ThT pH 4.0 lag time ([2]; Table 8)	ThT pH 4.0 lag time ([2]; ThT fibrillation assay)	ThT pH 4.0 lag time (h) ([2]; ThT fibrillation assay)	solubility at 18 h [3, 4]	solubility at 18 h [3, 5]	solubility at 18 h [3, 6]	solubility at 18 h [3, 7]	solubility at 18 h [3, 8]	solubility at 18 h [3, 9]	solubility at 18 h [3, 10]	solubility at 18 h [3, 11]	solubility at 18 h [3, 12]	solubility at 18 h [3, 13]	solubility at 18 h [3, 14]	ThT pH 4.0 lag time ([2]; Table 9)	solubility at 18 h ([3]; bistrispropane buffer, pH 7, pH 7.0, Table 9, read-out: Solubility pH 7.0)	solubility at 18 h ([3]; bistrispropane buffer, pH 7.5, pH 7.5, Table 9, read-out: Solubility pH 7.5)	Compound
0.052 nM	>45 h	>45 h	>45 h	> 200 µM	> 200 µM	155 µM (≈ 736 µg/mL)	155 µM (≈ 736 µg/mL)	155 µM (≈ 736 µg/mL)	169 µM (≈ 803 µg/mL)	> 200 µM	> 200 µM	> 200 µM	> 200 µM	> 200 µM				CC[C@H](C)[C@H](NC(=O)[C@H](CCCCNC(=O)COCCOCCNC(=O)COCCOCCNC(=O)CC[C@H](NC(=O)CCCCCCCCCCCCCCCCC(=O)O)C(=O)O)NC(=O)CNC(=O)[C@H](Cc1ccccc1)NC(=O)[C@H](CC(N)=O)NC(=O)[C@H](CC(N)=O)NC(=O)[C@H](CO)NC(=O)[C@H](CO)NC(=O)[C@H](Cc1c[nH]cn1)NC(=O)[C@H](Cc1c[nH]cn1)NC(=O)[C@H](CC(C)C)NC(=O)[C@H](Cc1ccccc1)NC(=O)[C@H](CCC(=O)O)NC(=O)[C@H](C)NC(=O)[C@H](CC(C)C)NC(=O)[C@H](CCCNC(=N)N)NC(=O)[C@H](CCC(N)=O)NC(=O)[C@@H](NC(=O)[C@H](C)NC(=O)[C@@H]1CSSC[C@H](NC(=O)[C@@H](N)CCCCN)C(=O)N[C@@H](CC(N)=O)C(=O)N[C@@H]([C@@H](C)O)C(=O)N[C@@H](C)C(=O)N[C@@H]([C@@H](C)O)C(=O)N1)[C@@H](C)O)C(=O)N[C@@H](CC(C)C)C(=O)N1CCC[C@H]1C(=O)N1CCC[C@H]1C(=O)N[C@H](C(=O)N[C@@H](CC(N)=O)C(=O)N[C@H](C(=O)NCC(=O)N[C@@H](CO)C(=O)N[C@@H](CC(N)=O)C(=O)N[C@H](C(=O)N[C@@H](Cc1ccc(O)cc1)C(N)=O)[C@@H](C)O)C(C)C)[C@@H](C)O [Example 73, N-epsilon25-[2-(2-{2-[2-(2-{2-[(S)-4-Carboxy-4-(17-carboxyheptadecanoylamino)butyrylamino]ethoxy}ethoxy)acetylamino]ethoxy}ethoxy)acetyl]-[Glu14,His17,Lys25]-pramlintide] (H-KCNTATCATQRLAEFLHHSSNNFGK([AEEA-AEEA-γGlu-C18 diacid])ILPPTNVGSNTY-NH2; disulfide 2-7 (inferred); N-terminus and C-terminus assumed)
0.224 nM		>45 h	>45 h	45 µM (≈ 202 µg/mL)	1 µM (≈ 4.49 µg/mL)			4 µM (≈ 18 µg/mL)	104 µM (≈ 467 µg/mL)	> 200 µM	> 200 µM	> 200 µM	> 200 µM	> 200 µM				CC[C@H](C)[C@H](NC(=O)[C@@H]1CCCN1C(=O)CNC(=O)[C@H](Cc1ccccc1)NC(=O)[C@H](CC(N)=O)NC(=O)[C@H](CC(N)=O)NC(=O)[C@H](CO)NC(=O)[C@H](CO)NC(=O)[C@H](Cc1c[nH]cn1)NC(=O)[C@H](Cc1c[nH]cn1)NC(=O)[C@H](CC(C)C)NC(=O)[C@H](Cc1ccccc1)NC(=O)[C@H](CCC(=O)O)NC(=O)[C@H](C)NC(=O)[C@H](CC(C)C)NC(=O)[C@H](CCCNC(=N)N)NC(=O)[C@H](CCC(N)=O)NC(=O)[C@@H](NC(=O)[C@H](C)NC(=O)[C@@H]1CSSC[C@H](NC(=O)[C@H](Cc2c[nH]cn2)NC(=O)CC[C@H](NC(=O)CCCCCCCCCCCCCCCCCCC(=O)O)C(=O)O)C(=O)N[C@@H](CC(N)=O)C(=O)N[C@@H]([C@@H](C)O)C(=O)N[C@@H](C)C(=O)N[C@@H]([C@@H](C)O)C(=O)N1)[C@@H](C)O)C(=O)N[C@@H](CC(C)C)C(=O)N1CCC[C@H]1C(=O)N1CCC[C@H]1C(=O)N[C@H](C(=O)N[C@@H](CC(N)=O)C(=O)N[C@H](C(=O)NCC(=O)N[C@@H](CO)C(=O)N[C@@H](Cc1c[nH]cn1)C(=O)N[C@H](C(=O)N[C@@H](Cc1ccc(O)cc1)C(N)=O)[C@@H](C)O)C(C)C)[C@@H](C)O [Example 76, N-alpha-[(S)-4-Carboxy-4-(19-carboxynonadecanoylamino)butyryl]-[His1,Glu14,His17,His35]-pramlintide] ({C20 diacid-γGlu}-HCNTATCATQRLAEFLHHSSNNFGPILPPTNVGSHTY-NH2; disulfide 2-7 (inferred); C-terminus assumed)
0.3 nM	>45 h	>45 h	>45 h	> 200 µM	> 200 µM	> 200 µM	> 200 µM	> 200 µM	> 200 µM	> 200 µM	> 200 µM	> 200 µM	> 200 µM	> 200 µM	>45 h	> 200 µM	> 200 µM	CC[C@H](C)[C@H](NC(=O)[C@@H]1CCCN1C(=O)CNC(=O)[C@H](Cc1ccccc1)NC(=O)[C@H](CC(N)=O)NC(=O)[C@H](CC(N)=O)NC(=O)[C@H](CO)NC(=O)[C@H](CO)NC(=O)[C@H](Cc1c[nH]cn1)NC(=O)[C@H](CCCNC(=N)N)NC(=O)[C@H](CC(C)C)NC(=O)[C@H](Cc1ccccc1)NC(=O)[C@H](CCC(=O)O)NC(=O)[C@H](C)NC(=O)[C@H](CC(C)C)NC(=O)[C@H](CCCNC(=N)N)NC(=O)[C@H](CCC(N)=O)NC(=O)[C@@H](NC(=O)[C@H](C)NC(=O)[C@@H]1CSSC[C@H](NC(=O)CNC(=O)CC[C@H](NC(=O)CCCCCCCCCCCCCCCCCCC(=O)O)C(=O)O)C(=O)N[C@@H](CC(N)=O)C(=O)N[C@@H]([C@@H](C)O)C(=O)N[C@@H](C)C(=O)N[C@@H]([C@@H](C)O)C(=O)N1)[C@@H](C)O)C(=O)N[C@@H](CC(C)C)C(=O)N1CCC[C@H]1C(=O)N1CCC[C@H]1C(=O)N[C@H](C(=O)N[C@@H](CC(N)=O)C(=O)N[C@H](C(=O)NCC(=O)N[C@@H](CO)C(=O)N[C@@H](CC(N)=O)C(=O)N[C@H](C(=O)N1CCC[C@H]1C(N)=O)[C@@H](C)O)C(C)C)[C@@H](C)O [Example 88, N-alpha-[(S)-4-Carboxy-4-(19-carboxynonadecanoylamino)butyryl]-[Gly1,Glu14,Arg17,Pro37]-pramlintide] ({C20 diacid-γGlu}-GCNTATCATQRLAEFLRHSSNNFGPILPPTNVGSNTP-NH2; disulfide 2-7 (inferred); C-terminus assumed)
